Measurements taken from patent publication US6444683B2, “17-azolyl steroids useful as androgen synthesis inhibitors” (University of Maryland at Baltimore, priority 1997, dated 2002).
“And” between values parts separate entries of the source, which are not always exact repeats. Identical values can stand only once. “Also recorded” adds a separate entry of the source. Like-named read-outs stand apart in the source and are kept apart here. Each block holds one compound with its values, some of them ahead of it.

Key:
Human P45017α = biological target: T1, Human P45017α (Homo sapiens, UniProt P05093); assay: Inhibition of human testicular microsomal P45017α (lyase activity, release of C3H3COOH from [21-3H3]-17α-hydroxypregnenolone); type: biochemical; conditions: for Ki: Human P45017α Ki; for inhibition at 0.15 µM: read-out: % Inhibition of human P45017α
T1 construct: Human testicular microsomes were prepared from human testes; from tissue; host or cells: human testes (untreated prostatic cancer patients undergoing orchidectomy), microsomal fraction
T1 sequence (P05093 1-508): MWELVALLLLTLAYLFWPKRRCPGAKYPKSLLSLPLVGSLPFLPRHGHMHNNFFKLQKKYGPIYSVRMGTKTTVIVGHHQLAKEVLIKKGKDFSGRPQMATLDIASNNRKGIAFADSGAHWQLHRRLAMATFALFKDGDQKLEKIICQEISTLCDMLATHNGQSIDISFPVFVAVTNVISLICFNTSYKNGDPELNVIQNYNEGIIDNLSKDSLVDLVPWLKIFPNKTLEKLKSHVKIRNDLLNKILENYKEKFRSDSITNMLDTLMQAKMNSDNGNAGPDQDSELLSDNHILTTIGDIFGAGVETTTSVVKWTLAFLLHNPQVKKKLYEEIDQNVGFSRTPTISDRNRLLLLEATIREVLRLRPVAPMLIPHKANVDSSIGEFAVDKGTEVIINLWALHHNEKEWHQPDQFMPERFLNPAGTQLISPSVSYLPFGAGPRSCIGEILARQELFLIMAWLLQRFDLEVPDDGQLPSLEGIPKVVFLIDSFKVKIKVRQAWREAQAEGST
Experimental: (§1) The microsomes were stored at −70° C. until assayed. Just before use, the thawed microsomes were diluted with 0.1 M phosphate buffer (pH 7.4) to appropriate concentrations.
(§2) This assay measures only the lyase activity of the P45017α enzyme.
(§3) IC50 values for inhibitors were calculated from the linear regression line in the plot of logit of lyase activity versus log of inhibitor concentration. […] Each inhibitor was examined at three concentrations.

[1] = biological target: T2, human prostate 5α-reductase (Homo sapiens, UniProt P31213); assay: Inhibition of human prostate 5α-reductase in BPH microsomes (conversion of [7-3H]-testosterone to DHT); type: biochemical; conditions: for Inhibition of 5α-reductase, in words: human prostate enzyme
T2 construct: The enzymatic reactions were initiated by addition of human BPH microsomes; from tissue; host or cells: human benign prostatic hyperplasia (BPH) tissue, microsomal fraction
T2 sequence (P31213 1-254): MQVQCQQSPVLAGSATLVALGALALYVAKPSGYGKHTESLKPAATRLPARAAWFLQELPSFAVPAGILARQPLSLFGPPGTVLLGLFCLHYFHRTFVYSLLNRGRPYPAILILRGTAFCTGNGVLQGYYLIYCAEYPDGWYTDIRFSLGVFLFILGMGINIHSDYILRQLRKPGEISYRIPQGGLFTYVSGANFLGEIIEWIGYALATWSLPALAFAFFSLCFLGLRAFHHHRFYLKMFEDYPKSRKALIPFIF
Experimental: […] The ethanol was evaporated to dryness under a gentle stream of air. […] The enzymatic reactions were initiated by addition of human BPH microsomes (about 180 μg of microsomal protein in 500 μl of phosphate buffer) in a total volume of 1.0 ml, and the incubations were performed for 10 min under oxygen in a shaking water bath at 37° C. The incubations were terminated by placing the sample tubes on ice and the addition of ether. Also, [^14C]-DHT (3000 dpm) and cold DHT (50 μg) were added to each tube as an internal standard and visualization marker, respectively. The steroids were extracted with ether and separated by TLC (chloroform:ether, 80:20) and visualized by exposure to iodine vapor. The extracts were analyzed for ^3H and ^14C using a liquid scintillation counter. The percentage conversion of [7-^3H]-testosterone to [^3H]-dihydrotestosterone was calculated and used to determine 5α-reductase activity.

Rat P45017α = biological target: T3, Rat P45017α (Rattus norvegicus, UniProt P11715); assay: Inhibition of rat testicular microsomal P45017α (lyase activity); type: biochemical
T3 sequence (P11715 1-507): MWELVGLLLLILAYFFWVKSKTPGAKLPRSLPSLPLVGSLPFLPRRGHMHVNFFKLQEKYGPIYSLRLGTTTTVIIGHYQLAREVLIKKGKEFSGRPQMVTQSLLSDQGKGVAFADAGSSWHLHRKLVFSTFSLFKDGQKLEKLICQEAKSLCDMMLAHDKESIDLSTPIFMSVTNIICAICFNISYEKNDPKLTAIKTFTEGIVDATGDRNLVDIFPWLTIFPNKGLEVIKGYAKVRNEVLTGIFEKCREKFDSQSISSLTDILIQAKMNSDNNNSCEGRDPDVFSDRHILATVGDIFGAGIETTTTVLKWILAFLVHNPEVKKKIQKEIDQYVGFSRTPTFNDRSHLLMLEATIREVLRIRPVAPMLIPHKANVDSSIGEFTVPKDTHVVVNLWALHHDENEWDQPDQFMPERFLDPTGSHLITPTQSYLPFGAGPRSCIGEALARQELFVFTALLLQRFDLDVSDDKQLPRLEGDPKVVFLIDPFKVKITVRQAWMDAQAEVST
Experimental: as §1, §2, §3

[2] = system: LNCaP human prostatic cancer cell; assay: Androgen-stimulated growth of LNCaP human prostatic cancer cells in vitro
[3] = inhibitor 150 nM, substrate 17α-hydroxypregnenolone 10 μM, mean of two determinations
[4] = from Lineweaver-Burk plots and slope replots, Km of 17α-hydroxypregnenolone 560 nM
[5] = human BPH microsomes, mean ± SDM of at least two experiments, read-out: 5α-Reductase IC50
[6] = from IC50 values, rat vs human testicular microsomes
[7] = rat testicular microsomes, mean ± SDM of at least two experiments, read-out: Rat P45017α IC50
[8] = human testicular microsomes, mean ± SDM of at least two experiments, read-out: Human P45017α IC50

SMILES: C[C@]12CC[C@H](O)CC1=CC[C@@H]1[C@@H]2CC[C@]2(C)C(n3nccn3)=CC[C@@H]12 [Compound 18, 3β-hydroxy-17-(2H-1,2,3-triazol-2-yl)androsta-5,16-diene]
Inhibition of human P45017α, in words (Human P45017α; human testicular microsomes): non-inhibitory | % Inhibition of human P45017α (Human P45017α; [3]): N.I.^c | melting point: 176 to 177 °C

melting point: 159 to 161 °C
SMILES: CC(=O)O[C@H]1CC[C@@]2(C)C(=CC[C@@H]3[C@@H]2CC[C@]2(C)C(n4cccn4)=CC[C@@H]32)C1

SMILES: C[C@]12CC[C@H](O)CC1=CC[C@@H]1[C@@H]2CC[C@]2(C)C(n3cncn3)=CC[C@@H]12 [Compound 6, 3β-hydroxy-17-(1H, 1,2,4-triazol-1-yl)androsta-5,16-diene]
IC50 (Human P45017α): 90 nM | Ki (Human P45017α; [4]): 23 nM | Inhibition of human P45017α, in words (Human P45017α; human testicular microsomes): potent inhibitors; also recorded: powerful inhibitors | inhibition at 0.15 µM (Human P45017α; [3]): 60% | IC50 [1, 5]: ~160000 nM | Inhibition of 5α-reductase, in words [1]: poor inhibitors | melting point: 185 to 189 °C (dec.) | Increase of potency towards the rat enzyme compared with human P45017α (Rat P45017α; [6]): 3.5 fold | Inhibition of rat testicular P45017α, in words (Rat P45017α; rat testicular microsomes): powerful inhibitors | IC50 (Rat P45017α; [7]): 26 ± 13 nM

melting point: 238 to 240 °C
SMILES: CC(=O)O[C@H]1CC[C@@]2(C)C(=CC[C@H]3[C@@H]4CC[C@@H](n5cccn5)[C@@]4(C)CC[C@@H]32)C1

SMILES: C[C@]12CC[C@H]3[C@@H](CC=C4C[C@@H](O)CC[C@@]43C)[C@@H]1CC[C@@H]2n1cncn1 [Compound 8, 3β-hydroxy-17β-(1H-1,2,4-triazol-1-yl)androst-5-ene]
IC50 (Human P45017α; [8]): 219 nM | melting point: 246 to 248 °C

SMILES: C[C@]12CCC(=O)C=C1CC[C@@H]1[C@@H]2CC[C@]2(C)C(n3cncn3)=CC[C@@H]12 [Compound 7, 17-(1H, 1,2,4-triazol-1-yl)androsta-4,16-diene-3-one]
Inhibition of human P45017α, in words (Human P45017α; human testicular microsomes): powerful inhibitors | IC50 (Human P45017α; [8]): 55 ± 11 nM | IC50 [1, 5]: 152 ± 10 nM | Inhibition of 5α-reductase, in words [1]: potent inhibitors | Increase of potency towards the rat enzyme compared with human P45017α (Rat P45017α; [6]): 5 fold | Inhibition of rat testicular P45017α, in words (Rat P45017α; rat testicular microsomes): powerful inhibitors | IC50 (Rat P45017α; [7]): 11 ± 3 nM

SMILES: C[C@]12CC[C@H](O)CC1=CC[C@@H]1[C@@H]2CC[C@]2(C)C(n3ccnc3)=CC[C@@H]12 [Compound 11, 3β-hydroxy-17-(1H-imidazol-1-yl)androsta-5,16-diene]
IC50 (Human P45017α): 8 nM | Ki (Human P45017α): 1.2 nM | Nature of inhibition kinetics of P45017α (Human P45017α; Lineweaver-Burk analysis, progress curves): slow-binding inhibitor | Inhibition of human P45017α, in words (Human P45017α; human testicular microsomes): potent inhibitors; also recorded: powerful inhibitors | inhibition at 0.15 µM (Human P45017α): 97% | IC50 [1]: ~400000 nM | Inhibition of 5α-reductase, in words [1]: poor inhibitors; also recorded: neither compound inhibited 5α-reductase | inhibition at 2.5 µM ([2]; Homo sapiens, LNCaP, read-out: Inhibition of DHT-induced growth of LNCaP cells): 100% | inhibition at 1 µM ([2]; Homo sapiens, LNCaP, read-out: Inhibition of testosterone-stimulated growth of LNCaP cells): 100% | Toxicity to LNCaP cells ([2]; concentration range 0.5-5.0 μM): nor was toxic to the cells | Antiandrogenic effects ([2]; inferred from inhibition of androgen-stimulated LNCaP growth): strong antiandrogenic effects | IC50 (Rat P45017α): 9 ± 2 nM | Increase of potency towards the rat enzyme compared with human P45017α (Rat P45017α; [6]): unchanged | Inhibition of rat testicular P45017α, in words (Rat P45017α; rat testicular microsomes): powerful inhibitors

SMILES: C[C@]12CCC(=O)C=C1CC[C@@H]1[C@@H]2CC[C@]2(C)C(n3ccnc3)=CC[C@@H]12 [Compound 12, 17-(1H-imidazol-1-yl)androsta-4,16-diene-3-one]
IC50 (Human P45017α): 7 ± 1 nM | Ki (Human P45017α; [4]): 1.8 nM and 1.9 nM | Inhibition of human P45017α, in words (Human P45017α; human testicular microsomes): powerful inhibitors | IC50 [1, 5]: 142 ± 5 nM | Inhibition of 5α-reductase, in words [1]: potent inhibitors | Increase of potency towards the rat enzyme compared with human P45017α (Rat P45017α; [6]): unchanged | Inhibition of rat testicular P45017α, in words (Rat P45017α; rat testicular microsomes): powerful inhibitors | IC50 (Rat P45017α; [7]): 8 ± 0.7 nM

SMILES: CC(=O)N1CCN(c2ccc(OCC3COC(Cn4ccnc4)(c4ccc(Cl)cc4Cl)O3)cc2)CC1 (stereo not shown) [Ketoconazole, reference compound]
Inhibition of human P45017α, in words (Human P45017α; human testicular microsomes): strong inhibition | Decrease of potency towards the rat enzyme compared with human P45017α (Rat P45017α; [6]): about 3 fold | IC50 (Rat P45017α; [7]): 209 ± 17 nM
